# Legend:
# [1] = system: Salmonella typhimurium; experiment: Antimutagenic activity against 2-aminoanthracene-induced revertant colonies in Salmonella typhimurium TA100 assessed as number of revertant colonies measured cotreatment at 9 uM (reference value: 457.9 +/- 16.74) in presence of mammalian S9 fraction; type: functional, Salmonella enterica subsp. enterica serovar Typhimurium
# [2] = system: Escherichia coli; experiment: Antimutagenic activity against 2-aminoanthracene-induced revertant colonies in Escherichia coli WP2uvrA assessed as number of revertant colonies measured pretreatment at 900 uM (reference value: 178.7 +/- 11.8) in presence of mammalian S9 fraction; type: functional
# [3] = system: Salmonella typhimurium; experiment: Antimutagenic activity against 2-nitrofluorene-induced revertant colonies in Salmonella typhimurium TA98 assessed as inhibition of mutagenicity measured at 90 to 180 uM; type: functional, Salmonella enterica subsp. enterica serovar Typhimurium
# [4] = system: Salmonella typhimurium; experiment: Antimutagenic activity against 2-aminoanthracene-induced revertant colonies in Salmonella typhimurium TA100 assessed as number of revertant colonies measured cotreatment at 900 uM (reference value: 457.9 +/- 16.74) in presence of mammalian S9 fraction; type: functional, Salmonella enterica subsp. enterica serovar Typhimurium
# [5] = system: Escherichia coli; experiment: Antimutagenic activity against 2-aminoanthracene-induced revertant colonies in Escherichia coli WP2uvrA assessed as number of revertant colonies measured post-treatment at 18 uM (reference value: 308 +/- 4) in presence of mammalian S9 fraction; type: functional
# [6] = system: Escherichia coli; experiment: Antimutagenic activity against methyl methansulfonate-induced revertant colonies in Escherichia coli WP2uvrA assessed as number of revertant colonies measured post-treatment at 9 uM (reference value: 726.7 +/- 12.7) in absence of mammalian S9 fraction; type: functional
# [7] = system: Escherichia coli; experiment: Antimutagenic activity against 2-aminoanthracene-induced revertant colonies in Escherichia coli WP2uvrA assessed as number of revertant colonies measured cotreatment at 900 uM (reference value: 366 +/- 10.3) in presence of mammalian S9 fraction; type: functional
# [8] = system: Salmonella typhimurium; experiment: Antimutagenic activity against 1,8-dinitropyrene-induced revertant colonies in Salmonella typhimurium TA98 assessed as inhibition of mutagenicity measured at 90 to 180 uM; type: functional, Salmonella enterica subsp. enterica serovar Typhimurium
# [9] = system: Salmonella typhimurium; experiment: Antimutagenic activity against sodium azide-induced revertant colonies in Salmonella typhimurium TA100 assessed as number of revertant colonies measured pretreatment at 9 uM (reference value: 1968 +/- 46.9) in absence of mammalian S9 fraction; type: functional, Salmonella enterica subsp. enterica serovar Typhimurium
# [10] = system: Salmonella typhimurium; experiment: Antimutagenic activity against 1-nitropyrene-induced revertant colonies in Salmonella typhimurium TA98NR assessed as inhibition of mutagenicity measured at 90 to 180 uM; type: functional, Salmonella enterica subsp. enterica serovar Typhimurium
# [11] = system: Salmonella typhimurium; experiment: Antimutagenic activity against 1-nitropyrene-induced revertant colonies in Salmonella typhimurium TA98 assessed as inhibition of mutagenicity measured at 90 to 180 uM; type: functional, Salmonella enterica subsp. enterica serovar Typhimurium
# [12] = system: Escherichia coli; experiment: Antimutagenic activity against methyl methansulfonate-induced revertant colonies in Escherichia coli WP2uvrA assessed as number of revertant colonies measured pretreatment at 180 uM (reference value: 466.7 +/- 40.4) in absence of mammalian S9 fraction; type: functional
# [13] = system: Salmonella typhimurium; experiment: Antimutagenic activity against sodium azide-induced revertant colonies in Salmonella typhimurium TA100 assessed as number of revertant colonies measured pretreatment at 18 uM (reference value: 1968 +/- 46.9) in absence of mammalian S9 fraction; type: functional, Salmonella enterica subsp. enterica serovar Typhimurium
# [14] = system: Salmonella typhimurium; experiment: Antimutagenic activity against 4-nitroquinoline N-oxide-induced revertant colonies in Salmonella typhimurium TA98 assessed as inhibition of mutagenicity measured at 900 uM; type: functional, Salmonella enterica subsp. enterica serovar Typhimurium; conditions: Salmonella enterica
# [15] = system: Salmonella typhimurium; experiment: Antimutagenic activity against 1,8-dinitropyrene-induced revertant colonies in Salmonella typhimurium TA98 assessed as inhibition of mutagenicity measured at 900 uM; type: functional, Salmonella enterica subsp. enterica serovar Typhimurium; conditions: Salmonella enterica
# [16] = system: Salmonella typhimurium; experiment: Antimutagenic activity against sodium azide-induced revertant colonies in Salmonella typhimurium TA100 assessed as number of revertant colonies measured cotreatment at 900 uM (reference value: 1588 +/- 55.6) in absence of mammalian S9 fraction; type: functional, Salmonella enterica subsp. enterica serovar Typhimurium
# [17] = system: Escherichia coli; experiment: Antimutagenic activity against 2-aminoanthracene-induced revertant colonies in Escherichia coli WP2uvrA assessed as number of revertant colonies measured pretreatment at 18 uM (reference value: 178.7 +/- 11.8) in presence of mammalian S9 fraction; type: functional
# [18] = system: Escherichia coli; experiment: Antimutagenic activity against methyl methansulfonate-induced revertant colonies in Escherichia coli WP2uvrA assessed as number of revertant colonies measured post-treatment at 90 uM (reference value: 726.7 +/- 12.7) in absence of mammalian S9 fraction; type: functional
# [19] = system: Salmonella typhimurium; experiment: Antimutagenic activity against 2-aminoanthracene-induced revertant colonies in Salmonella typhimurium TA100 assessed as number of revertant colonies measured pretreatment at 90 uM (reference value: 481.3 +/- 5.3) in presence of mammalian S9 fraction; type: functional, Salmonella enterica subsp. enterica serovar Typhimurium
# [20] = system: Escherichia coli; experiment: Antimutagenic activity against 2-aminoanthracene-induced revertant colonies in Escherichia coli WP2uvrA assessed as number of revertant colonies measured pretreatment at 90 uM (reference value: 178.7 +/- 11.8) in presence of mammalian S9 fraction; type: functional
# [21] = system: Escherichia coli; experiment: Antimutagenic activity against methyl methansulfonate-induced revertant colonies in Escherichia coli WP2uvrA assessed as number of revertant colonies measured post-treatment at 18 uM (reference value: 726.7 +/- 12.7) in absence of mammalian S9 fraction; type: functional
# [22] = system: Salmonella typhimurium; experiment: Antimutagenic activity against sodium azide-induced revertant colonies in Salmonella typhimurium TA100 assessed as number of revertant colonies measured pretreatment at 90 uM (reference value: 1968 +/- 46.9) in absence of mammalian S9 fraction; type: functional, Salmonella enterica subsp. enterica serovar Typhimurium
# [23] = system: Salmonella typhimurium; experiment: Antimutagenic activity against sodium azide-induced revertant colonies in Salmonella typhimurium TA100 assessed as number of revertant colonies measured cotreatment at 9 uM (reference value: 1588 +/- 55.6) in absence of mammalian S9 fraction; type: functional, Salmonella enterica subsp. enterica serovar Typhimurium
# [24] = system: Escherichia coli; experiment: Antimutagenic activity against methyl methansulfonate-induced revertant colonies in Escherichia coli WP2uvrA assessed as number of revertant colonies measured pretreatment at 9 uM (reference value: 466.7 +/- 40.4) in absence of mammalian S9 fraction; type: functional
# [25] = system: Salmonella typhimurium; experiment: Antimutagenic activity against 2-aminoanthracene-induced revertant colonies in Salmonella typhimurium TA100 assessed as number of revertant colonies measured post-treatment at 180 uM (reference value: 642.7 +/- 2.7) in presence of mammalian S9 fraction; type: functional, Salmonella enterica subsp. enterica serovar Typhimurium
# [26] = system: Escherichia coli; experiment: Antimutagenic activity against 2-aminoanthracene-induced revertant colonies in Escherichia coli WP2uvrA assessed as number of revertant colonies measured post-treatment at 90 uM (reference value: 308 +/- 4) in presence of mammalian S9 fraction; type: functional
# [27] = system: Escherichia coli; experiment: Antimutagenic activity against methyl methansulfonate-induced revertant colonies in Escherichia coli WP2uvrA assessed as number of revertant colonies measured cotreatment at 18 uM (reference value: 485.3 +/- 17.5) in absence of mammalian S9 fraction; type: functional
# [28] = system: Salmonella typhimurium; experiment: Antimutagenic activity against 4-nitroquinoline N-oxide-induced revertant colonies in Salmonella typhimurium TA98 assessed as inhibition of mutagenicity measured at 90 to 180 uM; type: functional, Salmonella enterica subsp. enterica serovar Typhimurium
# [29] = system: Salmonella typhimurium; experiment: Antimutagenic activity against 2-nitrofluorene-induced revertant colonies in Salmonella typhimurium TA98 assessed as inhibition of mutagenicity measured at 900 uM; type: functional, Salmonella enterica subsp. enterica serovar Typhimurium; conditions: Salmonella enterica
# [30] = system: Escherichia coli; experiment: Antimutagenic activity against 2-aminoanthracene-induced revertant colonies in Escherichia coli WP2uvrA assessed as number of revertant colonies measured post-treatment at 900 uM (reference value: 308 +/- 4) in presence of mammalian S9 fraction; type: functional
# [31] = system: Salmonella typhimurium; experiment: Antimutagenic activity against 1-nitropyrene-induced revertant colonies in Salmonella typhimurium TA98NR assessed as inhibition of mutagenicity measured at 900 uM; type: functional, Salmonella enterica subsp. enterica serovar Typhimurium; conditions: Salmonella enterica
structure (smiles),measurement,setting,value
CCCCCC/C(C=O)=C\c1ccccc1,Activity,[1],449.3
same,Activity,[2],141.3
same,inhibition (INH),[3],25%
same,Activity,[4],347
same,Activity,[5],292
same,Activity,[6],528
same,Activity,[7],293.5
same,inhibition (INH),[8],25%
same,Activity,[9],1877
same,inhibition (INH),[10],25%
same,inhibition (INH),[11],25%
same,Activity,[12],376
same,Activity,[13],1861
same,inhibition at 900 µM,[14],> 40%
same,inhibition at 900 µM,[15],> 40%
same,Activity,[16],1451
same,Activity,[17],166.7
same,Activity,[18],517.3
same,Activity,[19],454.7
same,Activity,[20],152.3
same,Activity,[21],524
same,Activity,[22],1801
same,Activity,[23],1519
same,Activity,[24],458.7
same,Activity,[25],520
same,Activity,[26],308.7
same,Activity,[27],485.3
same,inhibition (INH),[28],25%
same,inhibition at 900 µM,[29],> 40%
same,Activity,[30],304.3
same,inhibition at 900 µM,[31],> 40%
